Target: SAE1 (Homo sapiens (Human), UniProt Q9UBE0+Q9UBT2)
Assay: SAE High Throughput Biochemical Assay (HTRF), 15 min preincubation
Conditions: read-out: 15 min preincubation HTRF IC50 (μM) Ave, SAE1 12.5 nM, ATP 100 μM
Description: Assay buffer was prepared [50 mM HEPES, pH 7.5, 0.1% BSA and 10 mM MgCl2] as was the Stop Buffer [100 mM HEPES, pH 7.5, 0.05% Tween20, and 410 mM KF]. The 2×Reaction Buffer [80 nM SUMO-GST, 80 nM UBC9-His, 200 μM ATP and diluted in Assay Buffer] and Antibody Reaction Mix [13.34 nM anti-GSTXL665, 1.66 nM anti-His EuK and Diluted in Stop Buffer] were also prepared. Compounds were dissolved at 200×in DMSO in a 384-well plate. Serial dilutions were performed in DMSO for each compound, and then each concentration was diluted another 50-fold in Assay Buffer, to 4× the final concentration. 2.5 μL of each concentration was transferred into its own well in a 384-well plate. SAE1 was then diluted to 4× in Assay Buffer, and 2.5 μL of 4×SAE1 was mixed into each compound-containing well. After incubating for 15 minutes at RT, 5 μL of 2×Reaction Buffer was mixed into every well. Then after another 45 minutes at RT, 10 μL of Antibody Reaction Mix was added and mixed into every well. This plate was then read on an HTRF-compatible plate reader after 2 hours at RT, and again after sitting at RT overnight. [Final Component Concentrations: SAE1: 12.5 nM; SUMO-GST: 40 nM; UBC9-His: 40 nM; Anti-GST-XL665: 6.67 nM; Anti-His-EuK: 0.83 nM; and ATP: 100 μM] Alternatively, the compounds are tested at a single concentration of 25 micromolar and the percent of control is measured.

SAE1, sequence (Q9UBE0 whole entry): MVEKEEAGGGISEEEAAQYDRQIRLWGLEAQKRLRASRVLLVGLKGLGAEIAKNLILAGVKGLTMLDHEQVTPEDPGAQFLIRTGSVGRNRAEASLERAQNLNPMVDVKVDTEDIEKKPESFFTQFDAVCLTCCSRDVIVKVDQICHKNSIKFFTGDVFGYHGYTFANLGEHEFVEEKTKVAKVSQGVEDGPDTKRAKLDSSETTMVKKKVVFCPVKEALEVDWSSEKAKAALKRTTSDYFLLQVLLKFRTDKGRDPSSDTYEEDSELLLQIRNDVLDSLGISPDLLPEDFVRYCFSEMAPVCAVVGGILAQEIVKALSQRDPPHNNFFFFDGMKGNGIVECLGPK
SAE1, sequence (Q9UBT2 whole entry): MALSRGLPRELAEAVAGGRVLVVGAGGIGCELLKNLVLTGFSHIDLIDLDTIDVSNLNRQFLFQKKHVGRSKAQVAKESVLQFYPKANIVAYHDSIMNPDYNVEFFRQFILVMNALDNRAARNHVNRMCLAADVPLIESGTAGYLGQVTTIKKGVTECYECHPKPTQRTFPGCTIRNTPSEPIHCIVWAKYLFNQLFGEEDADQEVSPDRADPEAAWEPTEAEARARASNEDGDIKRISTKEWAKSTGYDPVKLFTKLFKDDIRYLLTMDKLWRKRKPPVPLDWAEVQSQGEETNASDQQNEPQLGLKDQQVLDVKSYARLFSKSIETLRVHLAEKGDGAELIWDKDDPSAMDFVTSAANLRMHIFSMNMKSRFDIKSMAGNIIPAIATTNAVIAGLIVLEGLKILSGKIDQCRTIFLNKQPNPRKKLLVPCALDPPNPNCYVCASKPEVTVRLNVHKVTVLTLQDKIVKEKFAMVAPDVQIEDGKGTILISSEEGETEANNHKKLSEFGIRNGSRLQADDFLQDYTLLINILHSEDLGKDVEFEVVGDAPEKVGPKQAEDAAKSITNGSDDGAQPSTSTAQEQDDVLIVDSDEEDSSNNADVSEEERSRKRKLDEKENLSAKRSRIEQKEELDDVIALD

Question: For `C=CC(=O)N1Cc2sc(C#N)cc2C(c2ccc(N)cc2-c2cn(CC)nc2C(F)(F)F)C1` (stereo not drawn) [Compound 228], which IC50 is on record?
Answer: The IC50 was 2.07 µM.

Question: `CN(C)C/C=C/C(=O)N1Cc2sc(C#N)cc2[C@H](c2ccccc2C#N)C1` [Example 4, (S, E)-4-(2-Cyanophenyl)-6-(4-(dimethylamino)but-2-enoyl)-4,5,6,7-tetrahydrothieno[2,3-c]pyridine-2-carbonitrile] was tested. Which IC50 did it give?
Answer: Its IC50 is greater than 25 µM.

Question: With `CCn1cc(-c2ccccc2[C@@H]2CN(C(=O)/C=C/CN3CCC[C@H]3C(=O)O)Cc3sc(C#N)cc32)c(C(F)(F)F)n1` [Example 6, ((E)-4-((S)-2-cyano-4-(2-(1-ethyl-3-(trifluoromethyl)-1 H-pyrazol-4-yl)phenyl)-4,7-dihydrothieno[2,3-c]pyridin-6(5H)-yl)-4-oxobut-2-en-1-yl)proline] as the compound, how does the IC50 read?
Answer: The IC50 was 7.43 µM.

Question: With `CCn1cc(-c2ccccc2[C@@H]2CN(C(=O)/C=C/CN(C)C)Cc3sc(C#N)cc32)c(C(C)(F)F)n1` [Example 10, (S, E)-4-(2-(3-(1,1-difluoroethyl)-1-ethyl-1H-pyrazol-4-yl)phenyl)-6-(4-(dimethylamino)but-2-enoyl)-4,5,6,7-tetrahydrothieno[2,3-c]pyridine-2-carbonitrile] as the compound, how does the IC50 read?
Answer: The IC50 was 13.4 µM.

Question: Which IC50 does the source give for `CCn1cc(-c2ccccc2[C@@H]2CN(C(=O)/C=C/CCN(C)C)Cc3sc(C#N)cc32)c(C(F)(F)F)n1` [Example 16] here?
Answer: Its IC50 is 18.1 µM.

Question: With `CN(C)C/C=C/C(=O)N1Cc2sc(C#N)cc2[C@H](c2ccccc2-c2cn(CC(F)F)nc2C(F)(F)F)C1` [Example 18, (S,E)-4-(2-(1-(2,2-difluoroethyl)-3-(trifluoromethyl)-1 H-pyrazol-4-yl)phenyl)-6-(4-(dimethylamino)but-2-enoyl)-4,5,6,7-tetrahydrothieno[2,3-c]pyridine-2-carbonitrile] as the compound, how does the IC50 read?
Answer: Its IC50 is 8.99 µM.

Question: For `CN(C)C/C=C/C(=O)N1Cc2sc(C#N)cc2[C@H](c2ccccc2-c2cn(CC(F)(F)F)nc2C(F)(F)F)C1` [Example 19, (S, E)-6-(4-(Dimethylamino)but-2-enoyl)-4-(2-(1-(2,2,2-trifluoroethyl)-3-(trifluoromethyl)-1 H-pyrazol-4-yl)phenyl)-4,5,6,7-tetrahydrothieno[2,3-c]pyridine-2-carbonitrile], which IC50 is on record?
Answer: Its IC50 is 6.12 µM.

Question: With `CCn1cc(-c2ccccc2[C@@H]2CN(C(=O)/C=C/C(c3ccccc3)N(C)C)Cc3sc(C#N)cc32)c(C(F)(F)F)n1` (stereo partly drawn) [Example 26, (4S)-6-((E)-4-(Dimethylamino)-4-phenylbut-2-enoyl)-4-(2-(1-ethyl-3-(trifluoromethyl)-1 H-pyrazol-4-yl)phenyl)-4,5,6,7-tetrahydrothieno[2,3-c]pyridine-2-carbonitrile] as the compound, how does the IC50 read?
Answer: The IC50 was 7.92 µM.

Question: For `CCn1cc(-c2ccccc2[C@@H]2CN(C(=O)/C=C/CN(C)Cc3ccccc3)Cc3sc(C#N)cc32)c(C(F)(F)F)n1` [Example 33, (S, E)-6-(4-(benzyl(methyl)amino)but-2-enoyl)-4-(2-(1-ethyl-3-(trifluoromethyl)-1 H-pyrazol-4-yl)phenyl)-4,5,6,7-tetrahydrothieno[2,3-c]pyridine-2-carbonitrile], which IC50 is on record?
Answer: The IC50 was 8.44 µM.

Question: Which IC50 does the source give for `CCn1cc(-c2ccccc2[C@@H]2CN(C(=O)/C=C/CN3CCC(c4ccccc4)C3)Cc3sc(C#N)cc32)c(C(F)(F)F)n1` (stereo partly drawn) [Example 35, (4S)-4-(2-(1-ethyl-3-(trifluoromethyl)-1 H-pyrazol-4-yl)phenyl)-6-((E)-4-(3-phenylpyrrolidin-1-yl)but-2-enoyl)-4,5,6,7-tetrahydrothieno[2,3-c]pyridine-2-carbonitrile] here?
Answer: The IC50 was greater than 25 µM.

Question: Which IC50 does the source give for `CCn1cc(-c2ccccc2[C@@H]2CN(C(=O)/C=C/C(C)(C)N)Cc3sc(C#N)cc32)c(C(F)(F)F)n1` [Example 37, (S, E)-6-(4-amino-4-methylpent-2-enoyl)-4-(2-(1-ethyl-3-(trifluoromethyl)-1 H-pyrazol-4-yl)phenyl)-4,5,6,7-tetrahydrothieno[2,3-c]pyridine-2-carbonitrile] here?
Answer: The IC50 was greater than 25 µM.

Question: How did the IC50 turn out when `CCn1cc(-c2ccccc2[C@@H]2CN(C(=O)/C=C/C(C)(C)NC)Cc3sc(C#N)cc32)c(C(F)(F)F)n1` [Example 38, (S, E)-4-(2-(1-ethyl-3-(trifluoromethyl)-1 H-pyrazol-4-yl)phenyl)-6-(4-methyl-4-(methylamino)pent-2-enoyl)-4,5,6,7-tetrahydrothieno[2,3-c]pyridine-2-carbonitrile] was run?
Answer: Its IC50 is greater than 25 µM.

Question: `CCn1cc(-c2ccccc2[C@@H]2CN(C(=O)/C=C/[C@H](C)N)Cc3sc(C#N)cc32)c(C(F)(F)F)n1` [Example 49, (S)-6-((S,E)-4-aminopent-2-enoyl)-4-(2-(1-ethyl-3-(trifluoromethyl)11 H-pyrazol-4-yl)phenyl)-4,5,6,7-tetrahydrothieno[2,3-c]pyridine-2-carbonitrile] was tested. Which IC50 did it give?
Answer: Its IC50 is 10.1 µM.

Question: `CCn1cc(-c2c(F)cccc2[C@@H]2CN(C(=O)/C=C/CN[C@@H]3CCOC3)Cc3sc(C#N)cc32)c(C(F)(F)F)n1` [Example 55, (S)-4-(2-(1-ethyl-3-(trifluoromethyl)-1 H-pyrazol-4-yl)-3-fluorophenyl)-6-((E)-4-(((R)-tetrahydrofuran-3-yl)amino)but-2-enoyl)-4,5,6,7-tetrahydrothieno[2,3-c]pyridine-2-carbonitrile] was tested. Which IC50 did it give?
Answer: Its IC50 is 1.66 µM.

Question: `CCn1cc(-c2c(F)cccc2[C@@H]2CN(C(=O)/C=C/CN[C@H]3CCOC3)Cc3sc(C#N)cc32)c(C(F)(F)F)n1` [Example 56, (S)-4-(2-(1-ethyl-3-(trifluoromethyl)-1 H-pyrazol-4-yl)-3-fluorophenyl)-6-((E)-4-(((S)-tetrahydrofuran-3-yl)amino)but-2-enoyl)-4,5,6,7-tetrahydrothieno[2,3-c]pyridine-2-carbonitrile] was tested. Which IC50 did it give?
Answer: Its IC50 is 1.09 µM.

Question: How did the IC50 turn out when `CCn1cc(-c2c(F)cccc2[C@@H]2CN(C(=O)/C=C/CNC3CCN(C(C)=O)CC3)Cc3sc(C#N)cc32)c(C(F)(F)F)n1` [Example 57, (S, E)-6-(4-((1-acetylpiperidin-4-yl)amino)but-2-enoyl)-4-(2-(1-ethyl-3-(trifluoromethyl)-1 H-pyrazol-4-yl)-3-fluorophenyl)-4,5,6,7-tetrahydrothieno[2,3-c]pyridine-2-carbonitrile] was run?
Answer: The IC50 was greater than 25 µM.

Question: `CCn1cc(-c2c(F)cccc2[C@@H]2CN(C(=O)/C=C/CNC3CCN(C(C)=O)C3)Cc3sc(C#N)cc32)c(C(F)(F)F)n1` (stereo partly drawn) [Example 58, (4S)-6-((E)-4-((1-acetylpyrrolidin-3-yl)amino)but-2-enoyl)-4-(2-(1-ethyl-3-(trifluoromethyl)-1 H-pyrazol-4-yl)-3-fluorophenyl)-4,5,6,7-tetrahydrothieno[2,3-c]pyridine-2-carbonitrile] was tested. Which IC50 did it give?
Answer: Its IC50 is 6.06 µM.

Question: With `C=C(CO)C(=O)N1Cc2sc(C#N)cc2[C@H](c2ccccc2-c2cn(CC)nc2C(F)(F)F)C1` [Example 62, (S)-4-(2-(1-Ethyl-3-(trifluoromethyl)-1 H pyrazol-4-yl)phenyl)-6-(2-(hydroxymethyl)acryloyl)-4,5,6,7-tetrahydrothieno[2,3-c]pyridine-2-carbonitrile] as the compound, how does the IC50 read?
Answer: Its IC50 is greater than 25 µM.

Question: For `C=C(C(=O)N1Cc2sc(C#N)cc2[C@H](c2ccccc2-c2cn(CC)nc2C(F)(F)F)C1)c1ccccc1` [Example 63, (S)-4-(2-(1-Ethyl-3-(trifluoromethyl)-1H pyrazol-4-yl)phenyl)-6-(2-phenylacryloyl)-4,5,6,7-tetrahydrothieno[2,3-c]pyridine-2-carbonitrile], which IC50 is on record?
Answer: The IC50 was greater than 25 µM.

Question: With `CCn1cc(-c2ccccc2[C@@H]2CN(C(=O)/C=C/[C@H](N)CO)Cc3sc(C#N)cc32)c(C(F)(F)F)n1` [Example 73, (S)-6-((S,E)-4-Amino-5-hydroxypent-2-enoyl)-4-(2-(1-ethyl-3-(trifluoromethyl)-1H pyrazol-4-yl)phenyl)-4,5,6,7-tetrahydrothieno[2,3-c]pyridine-2-carbonitrile] as the compound, how does the IC50 read?
Answer: The IC50 was 21.9 µM.

Question: Which IC50 does the source give for `CCn1cc(-c2ccccc2[C@@H]2CN(C(=O)/C=C/C3COCCN3)Cc3sc(C#N)cc32)c(C(F)(F)F)n1` (stereo partly drawn) [Example 76, (4S)-4-(2-(1-Ethyl-3-(trifluoromethyl)-1 H-pyrazol-4-yl)phenyl)-6-((E)-3-(morpholin-3-yl)acryloyl)-4,5,6,7-tetrahydrothieno[2,3-c]pyridine-2-carbonitrile] here?
Answer: The IC50 was 14.7 µM.

Question: With `CCn1cc(-c2ccccc2[C@@H]2CN(C(=O)/C=C/C(C)NC)Cc3sc(C#N)cc32)c(C(F)(F)F)n1` (stereo partly drawn) [Example 77, (4S)-4-(2-(1-Ethyl-3-(trifluoromethyl)-1 H pyrazol-4-yl)phenyl)-6-((E)-4-(methylamino)pent-2-enoyl)-4,5,6,7-tetrahydrothieno[2,3-c]pyridine-2-carbonitrile] as the compound, how does the IC50 read?
Answer: The IC50 was 9.55 µM.

Question: With `CCn1cc(-c2ccccc2[C@@H]2CN(C(=O)/C=C/[C@H]3CCC(C)(C)N3)Cc3sc(C#N)cc32)c(C(F)(F)F)n1` [Example 78, (S)-6-((E)-3-((R)-5,5-Dimethylpyrrolidin-2-yl)acryloyl)-4-(2-(1-ethyl-3-(trifluoromethyl)-1H pyrazol-4-yl)phenyl)-4,5,6,7-tetrahydrothieno[2,3-c]pyridine-2-carbonitrile] as the compound, how does the IC50 read?
Answer: The IC50 was 6 µM.

Question: `CCn1cc(-c2ccccc2[C@@H]2CN(C(=O)/C=C/[C@@H](COC)NC)Cc3sc(C#N)cc32)c(C(F)(F)F)n1` [Example 85, (S)-4-(2-(1-Ethyl-3-(trifluoromethyl)-1 H-pyrazol-4-yl)phenyl)-6-((S, E)-5-methoxy-4-(methylamino)pent-2-enoyl)-4,5,6,7-tetrahydrothieno[2,3-c]pyridine-2-carbonitrile] was tested. Which IC50 did it give?
Answer: Its IC50 is greater than 25 µM.

From US20240360148A1 (SUVALENT THERAPEUTICS, INC., priority 2021, published 2024)
